Measured values published in patent US20060183733A1, “Treating microvasculature diseases with acetyl cholinesterase inhibitors” (priority 2005, published 2006).
“Also recorded” adds a separate entry of the source. Read-outs that look alike come from different tables or passages of the source.

Key:
[1] = test system: patients with diabetic polyneuropathy; type: in vivo, human
Text: The symptoms of motor and sensory loss of diabetic polyneuropathy are ameliorated by acetylcholinesterase inhibitions by increasing concentration of acetylcholine, the principle neurotransmitter of the parasympathetic nervous system. By augmenting the trophic input of nerves of parasympathic nervous system; pain and dyserethesia are diminished and weakness/atrophy of muscles are diminished. The clinical observation in non-Alzheimer's patients is an improvement in motor and sensory function following treatment with effective doses of an acetylcholinesterase inhibitor. Improved blood flow within the microvascular circulation supplying the vasovasorum of the nerves produces the beneficial effect. By restoring blood flow to the vasovasorum of the nerves ischemic pain is relieved and normal function of the nerve is allowed to occur. The process of vasodilatation of the microvascular circulation is mediated through both neuronal and non-neuronal acetylcholine receptors stimulation by acetylcholine. Enhancement in acetylcholine levels is effected through treatment with acetylcholinesterase inhibitors.
The physiologic shift favoring vasoconstriction that is associated with diabetes is reversed following administration of an acetylcholinesterase inhibitor allowing perfusion of the microvasculature, restoring blood flow to ischemic motor and sensory nerves damaged by the effects of diabetes.

[2] = test system: patients with myofascial pain / fibromyalgia; experiment: Patient case histories: fibromyalgia / myofascial pain syndrome; type: in vivo, human
Text: The present invention provides a method for treating fibromyalgia and myofascial pain syndrome by increasing tissue levels of acetylcholine. Acetylcholine is the neurotransmitter of the parasympathic nervous system. The inventive method increases the relative amount of parasympathetic transmission and thereby facilitates resolution of the pain areas and diminishes the need for narcotics and polypharmacy. The reduction in the use of narcotics, NSAIDs, and tricyclic antidepressants and other medications used for pain having their deleterious side effects is a major benefit. By administration of acetyl cholinesterase inhibitor, the relative concentrations of acetylcholine are increased and available to propagate the impulses of the parasympathic nervous systems and within the non-neuronal acetylcholine receptors diminishing pain and spasms. […] The influence of non-neuronal acetylcholine receptors affected by enhanced levels of acetylcholine produces a reduction in pro-inflammatory mediators and increased blood flow to the nerve fibers involved in pain transmission. The net effect is a reduction in inflammation and improved blood flow to the vasovasorum of the affected nerves reducing the painful sensations.

patients with lymphedema = type: in vivo, human
Text: The improvement in perfusion within the small arterioles decreases the hydrostatic pressure at the end arterioles and therefore reduces interstitial fluid accumulation that impedes the return of lymph fluid within the lymphatic vessels. The physics model for this phenomenon makes use of Bernouli's equation and its relationship to a Venturi tube. Hydrostatic pressure proximal to a relative stricture creates a pressure gradient that leads to increased transudation that overwhelms the capacity of the lymphatic system to manage. The vasodilatory effects of the parasympathetic nervous system upon small arterioles produces improved perfusion and lessens the accumulation of lymphedema. A common example of lymphedema occurs following joint replacement surgery with swelling that persists for three to six months and sometimes permanently. Lymphedema following joint replacement surgery slows recovery and creates pain while predisposing to deep vein thrombosis and infection.

[3] = test system: patients with rheumatologic conditions (RA, SLE, PMR, polymyositis); experiment: Patient case histories: rheumatological conditions; type: in vivo, human
Text: The use of an acetylcholinesterase inhibitor raises level of acetylcholine by inhibition of cholinesterase. The Increased levels of acetylcholine stimulate neuronal receptors of the parasympathetic nervous system and non-neuronal receptors associated with the intima of blood vessels and leukocytes. This dual effect of improving flow within the microvascular circulation and stabilization of leukocytes and their adhesion to the wall of blood vessel produces the anti-inflammatory effect that is observed with the use of an acetylcholinesterase inhibitor for treatment of rheumatologic diseases.

[4] = test system: patients with neuropathic pain; conditions: rivastigmine test dose
[5] = test system: patients with Parkinson's disease; conditions: rivastigmine 1.5-3 mg twice daily
[6] = test system: regional blood flow in the brain; conditions: PET scanning; Alzheimer's patients and normal subjects; cited from earlier work
[7] = test system: patients with GI or urinary side effects of an acetylcholinesterase inhibitor; experiment: Treatment of side effects of acetylcholinesterase inhibitors (case histories); type: in vivo; conditions: for relief of urinary side effects (polyuria, frequency): Detrol / Detrol LA 2-4 mg daily with donepizil; for relief of GI side effects (nausea, diarrhea, frequent bowel movements, cramps): metoclopramide (Reglan) 5 mg before meals and at bedtime, with an acetylcholinesterase inhibitor
Text: Metoclopramide (Reglan®) is an […].
The most extreme example of neuropathic pain arises following amputation where there is complete transection of the nerve. Pain complaints are difficult to manage with the usual combinations of anti-seizure drugs, tricyclic anti-depressants and narcotics.

cutaneous blood flow = conditions: animal models; cited from earlier work
[8] = test system: patients with peripheral vascular disease and diabetes mellitus; experiment: Patient case histories: microvascular disease / vascular insufficiency; type: in vivo, human; conditions: galantamine 4-8 mg two to four times daily
Text: In summary, vascular insufficiency from diabetes is associated with compromise of the microvascular circulation. Treatment with an effective dose of an acetylcholinesterase inhibitor raises the relative concentration of acetylcholine promoting vasodilitation of the microcirculation (end arterioles) through stimulation of neuronal and non-neuronal acetylcholine receptors in the intima of the blood vessels. The beneficial effects of promoting vasodilitation and enhanced tissue perfusion correcting the dystrophic changes and alleviating ischemic pain and ulcers is readily apparent in this series of patients.
The present invention provides a method for the medical management of peripheral vascular disease. The management of peripheral vascular disease with acetylcholinesterase inhibitor addresses the central dilemma in vascular perfusion of the lower extremities. By increasing the relative concentration of acetylcholine, the parasympthetic nervous system is enhanced, improving blood flow at the tissue level by relaxation of the small end arterioles and improving perfusion therefore decreasing vascular edema, enhancing resolution of trohpic ulcers and alleviating rest pain and claudication complaints. The parasympathetic nervous system controls vascular beds in the small arterioles and by increasing the available acetylcholine, dilatation occurs and blood flow improves. By treatment with acetylcholinesterase inhibitors the end results in improved vascular blood supply, decreased congestion at the small arterioles level and improved blood supply. This is particularly necessary in diabetic patients. The presence of non-neuronal acetylcholine receptors with the intima of blood vessels at the microvascular level represents a second physiologic mechanism whereby dilatation of small blood vessels is facilitated by the use of an acetylcholinesterase inhibitor. This latter mechanism owing to the sensitive nature of the cholinesterases associated with the non neuronal acetylcholine system provides sustained cholinergic activity impacting the microvascular circulation and improving perfusion at the critical end arteriole-capillary-venule level.

[9] = test system: patients with chronic renal insufficiency; experiment: Patient case histories: chronic renal insufficiency (serum creatinine, BUN); type: in vivo, human; conditions: galantamine 4 mg orally three times daily
Text: To postpone or avoid the sequelae of chronic renal insufficiency, treatment with acetylcholinesterase inhibitors increase the concentration of acetycholine available to promote blood flow to the renal cortex preventing loss of nephrons and allowing existing renal parenchyma to provide the vital function of the kidney. Just as parasympathetic outflow provide homeostatic neural input to the elimination of function of the intestine, the same parasympathetic innervation provides vasodilatation of the small arterioles supplying the cortex of the kidneys allowing for optimal functioning.

[10] = test system: patients with Multiple Sclerosis; type: in vivo, human; conditions: galantamine 4 mg orally three times daily, foley catheter removed 48 hours later
Text: The present invention provides an acetylcholinesterase inhibitor to increase the relative concentration of […] within the central nervous system to improve parasympathetic neural transmission and combat the features of M. S. that often present in a craniosacral distribution. Cranial symptoms include mental status changes, emotional lability as well as optic dysfunction and nystgmus. Cranial nerves that control extracular muscles are also affected. Cranial involvement can also manifest as swallowing problems with frank dysphagia. The sacral manifestations of parasympathic dysfunction relate to bowel and bladder control. The symptoms of spastic bladder, urinary retention and constipation are relieved by treatment with an Acetylcholinesterase inhibitor raising the concentrations of acetylcholine to enhance the neural transmission of the parasympathetic nervous system to facilitate normal bowel and bladder function. The craniosacral manifestations of M.S. are reflected in dysfunctional neural transmission associated with the parasympathetic nervous system and can be ameliorated or corrected by treatment with an acetylcholinesterase inhibitor. Improved blood flow within the vasovasorum of the myelin sheath/nerve is also considered useful in amelioration of MS symptoms. […]

[11] = test system: patients with phantom pain; experiment: Patient case histories: phantom pain following amputation; type: in vivo, human
Text: The present invention further provides a method of treating phantom pain following amputation in both upper and lower extremities. “Phantom pain” is a phenomenon described following amputation of either an upper or lower extremity. The sensation is common following amputation and present with varying degrees of discomfort and debility. A patient with phantom pain is typically treated with antidepressants, Neurontin® (gabapeninand) narcotics to a varying degree. The use of acetylcholinesterase inhibitors decreases the need for narcotics and generally eliminates the need for poly pharmacy improving pain, enhancing wound healing and improved sleep pattern in amputee patients. The dose of acetylcholinesterase inhibitor is titrated to GI (gastrointestinal) tolerance with bowel movement consistency and frequency the determining factors. Treatment with acetylcholinesterase inhibitor increases the available acetylcholine which is the neurotransmitter responsible for activation of the parasysmpathic nervous system appear responsible for Noxious symptoms of phantom pain for discomfort. The present invention provides a method of treating phantom pain associated with amputation of either upper or lower extremity.

[12] = test system: patients with urinary retention; experiment: Patient case histories: urinary retention (voiding trials, post void residuals); conditions: for post void residuals (PVR's): before 150-200 cc
[13] = rivastigmine 1.5 mg twice daily

Compound: CCN(C)C(=O)Oc1cccc([C@H](C)N(C)C)c1 [rivastigmine]
- course after the drug was withdrawn or lapsed ([1]; drug stopped after initial improvement): complaints of weakness and loss of ambulatory ability
- side effects ([2]; rivastigmine): no ill effects; also recorded: no adverse side effects
- clinical outcome (pain) [2, 13]: significant improvement; also recorded: greater control of their pain
- clinical outcome (pain) ([2]; rivastigmine 3 mg twice daily): near complete alleviation in their pain; also recorded: pain symptoms became less frequent
- clinical outcome (narcotic use) ([2]; rivastigmine 4 mg orally twice daily titrated upward to 8 mg three times daily): use of narcotics was completely eliminated
- side effects (patients with lymphedema; [13]): no ill side effects
- clinical outcome (swelling, warmth, pain) ([3]; rivastigmine 1.5 mg orally twice daily, Rheumatoid Arthritis flair-up): signs of swelling and warmth improved but the patient still had complaints of pain
- clinical outcome (pain, swelling) ([3]; rivastigmine 3 mg orally twice daily, Rheumatoid Arthritis flair-up): pain symptoms resolved within a day; also recorded: concomitant improvement in their lower extremity swelling
- side effects ([3]; rivastigmine 1.5-3 mg twice daily): no adverse side effects such as dyspepsia, diarrhea or polyuria
- recurrence under prophylaxis ([3]; rivastigmine lower dose for prophylaxis, three month): no recurrence of pain or swelling
- clinical outcome (phantom pain) [4]: notable improvement in their phantom pain within one hour
- side effects [5]: no negative side effects
- regional blood flow in the brain / CNS structures [6]: Regional blood flow is increased; also recorded: improve blood flow to CNS structures; also recorded: improve regional blood flow in the brain

Compound: Cc1ccc(O)c([C@H](CCN(C(C)C)C(C)C)c2ccccc2)c1 [Detrol LA, tolterodine]
- relief of urinary side effects (polyuria, frequency) [7]: prompt reduction in their urinary frequency; also recorded: able to tolerate this regimen
- relief of urinary side effects (polyuria, frequency) ([7]; listed as Detrol): treated successfully

Compound: CCN(CC)CCNC(=O)c1cc(Cl)c(N)cc1OC [Reglan, metoclopramide]
- relief of GI side effects (nausea, diarrhea, frequent bowel movements, cramps) [7]: able to continue treatment with donepizil; also recorded: prompt resolution of their GI complaints; also recorded: prompt relief of their GI complaints; also recorded: treated successfully
- relief of GI side effects (nausea, diarrhea, frequent bowel movements, cramps) ([7]; listed as metoclopramide): easily managed; also recorded: ameliorated or eliminated

Compound: CC(=O)OC(C)C[N+](C)(C)C (stereo not shown) [Methacholine]
- cutaneous blood flow and skin temperature (cutaneous blood flow): increases cutaneous blood flow and skin temperature

Compound: COc1ccc2c3c1O[C@H]1C[C@@H](O)C=C[C@@]31CCN(C)C2 [galantamine]
- side effects [8]: No symptoms of diarrhea or gastroesophageal reflux disease (GERD) were reported; also recorded: no untoward side effects
- serum creatinine ([9]; before treatment 1.8): 1.4
- BUN (blood urea nitrogen) ([9]; before treatment 32): 21
- improvement in Left foot drop ([1]; galantamine titrated to 8 mg TID (a person)): 80-85%
- side effects (patients with lymphedema; galantamine 4 mg orally three times daily, asthma patient): without compromise of their pulmonary condition
- post void residuals [10]: < 100 cc
- side effects ([11]; galantamine 4 mg BID titrated to four times a day): without nausea/vomiting or GI upset
- use of Oxycodone/APAP ([11]; galantamine 8 mg BID over two weeks, before: 5 tablets per day): 2-3 tablets per week
- side effects ([3]; galantamine 4-8 mg three times daily): no adverse side effects of diarrhea or nausea
- post void residuals (PVR's) ([12]; galantamine 4 mg orally three times daily): under 100 cc
- side effects ([12]; galantamine 4 mg three times daily to 8 mg two or three times daily): no untoward side effects; also recorded: mild nausea (without emesis)
- post void residuals (PVR's) ([12]; galantamine 8 mg orally twice daily): ~50 cc

Compound: CCOc1ccccc1OCCN[C@H](C)Cc1ccc(OC)c(S(N)(=O)=O)c1 [Flomax]
- voiding trial ([12]; Flomax 0.4 mg, then 0.8 mg, residuals in excess of 300 cc's before): first voiding trial was unsuccessful; also recorded: second voiding trial was also unsuccessful
